# Paper PMC10170162, “Identification of a new gibberellin receptor agonist, diphegaractin, by a cell-free chemical screening system” (Communications Biology, 2023)
# Experiments:
# Test in all cases: AlphaScreen GID1-DELLA interaction
# Format in all cases: biochemical
# [1] = target: T1, VvGID1a (with VvDELLA2) (Vitis vinifera, UniProt A5BRG2); settings: agonist; partner VvDELLA2 (also VvDELLA1, VvDELLA3); dose series; pH 8.0, 26 °C; unpurified cell-free proteins
# T1 construct: C-terminal biotinylated GID1 and C-terminal FLAG-tagged DELLA, wheat germ cell-free synthesis, unpurified; also tested with VvDELLA1 and VvDELLA3; with DELLA protein
# T1 sequence (A5BRG2 1-344): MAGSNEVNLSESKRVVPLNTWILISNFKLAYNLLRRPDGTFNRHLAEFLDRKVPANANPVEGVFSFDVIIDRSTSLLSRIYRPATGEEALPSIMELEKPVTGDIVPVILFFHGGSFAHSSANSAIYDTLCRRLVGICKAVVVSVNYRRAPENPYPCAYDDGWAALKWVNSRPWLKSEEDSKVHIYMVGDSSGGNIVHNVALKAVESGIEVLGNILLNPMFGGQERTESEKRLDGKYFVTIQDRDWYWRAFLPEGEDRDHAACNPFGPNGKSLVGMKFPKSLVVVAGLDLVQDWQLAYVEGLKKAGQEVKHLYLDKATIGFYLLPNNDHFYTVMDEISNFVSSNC
# T1 sequence (F6HH58 1-532 partner): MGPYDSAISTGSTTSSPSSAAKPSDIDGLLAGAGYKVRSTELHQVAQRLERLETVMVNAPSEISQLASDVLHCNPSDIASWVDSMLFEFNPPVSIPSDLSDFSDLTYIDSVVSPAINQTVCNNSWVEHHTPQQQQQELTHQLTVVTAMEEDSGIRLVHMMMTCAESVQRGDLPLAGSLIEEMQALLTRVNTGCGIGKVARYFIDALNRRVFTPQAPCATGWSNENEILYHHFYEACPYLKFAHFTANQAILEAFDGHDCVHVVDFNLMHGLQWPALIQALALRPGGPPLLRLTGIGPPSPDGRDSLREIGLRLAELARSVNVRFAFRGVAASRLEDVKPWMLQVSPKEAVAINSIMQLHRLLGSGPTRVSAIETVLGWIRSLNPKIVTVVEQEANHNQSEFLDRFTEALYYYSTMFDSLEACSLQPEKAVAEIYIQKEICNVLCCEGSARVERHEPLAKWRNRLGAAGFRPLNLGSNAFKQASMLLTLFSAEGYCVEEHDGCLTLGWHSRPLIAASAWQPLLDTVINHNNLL
# [2] = target: T2, VvGID1b (with VvDELLA2) (Vitis vinifera, UniProt F6HQ36); settings: agonist; partner VvDELLA2 (also VvDELLA1); dose series; pH 8.0, 26 °C; unpurified cell-free proteins
# T2 construct: C-terminal biotinylated GID1 and C-terminal FLAG-tagged DELLA, wheat germ cell-free synthesis, unpurified; cDNA from grape leaf mRNA; with DELLA protein
# T2 sequence (F6HQ36 1-344): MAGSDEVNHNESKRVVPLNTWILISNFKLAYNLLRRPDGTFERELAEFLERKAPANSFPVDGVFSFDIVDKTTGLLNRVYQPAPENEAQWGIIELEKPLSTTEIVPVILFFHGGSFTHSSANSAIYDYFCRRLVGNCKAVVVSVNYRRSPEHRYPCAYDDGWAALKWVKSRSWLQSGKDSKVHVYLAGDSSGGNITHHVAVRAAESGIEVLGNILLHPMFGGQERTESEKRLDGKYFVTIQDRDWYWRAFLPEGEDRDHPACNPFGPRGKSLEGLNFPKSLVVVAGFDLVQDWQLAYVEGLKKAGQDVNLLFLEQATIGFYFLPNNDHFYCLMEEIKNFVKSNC
# T2 sequence (F6HH58 1-532 partner): T1 sequence (F6HH58 1-532 partner)
# [3] = target: T3, OsGID1 (with OsSLR) (Oryza sativa, UniProt Q6L545, V326I/L330F); settings: agonist; partner OsSLR; pH 8.0, 26 °C; unpurified cell-free proteins
# T3 construct: gene GID1; C-terminal biotinylated GID1 and C-terminal FLAG-tagged DELLA, wheat germ cell-free synthesis, unpurified; with DELLA protein SLR1
# T3 sequence (Q6L545 1-354 V326I/L330F): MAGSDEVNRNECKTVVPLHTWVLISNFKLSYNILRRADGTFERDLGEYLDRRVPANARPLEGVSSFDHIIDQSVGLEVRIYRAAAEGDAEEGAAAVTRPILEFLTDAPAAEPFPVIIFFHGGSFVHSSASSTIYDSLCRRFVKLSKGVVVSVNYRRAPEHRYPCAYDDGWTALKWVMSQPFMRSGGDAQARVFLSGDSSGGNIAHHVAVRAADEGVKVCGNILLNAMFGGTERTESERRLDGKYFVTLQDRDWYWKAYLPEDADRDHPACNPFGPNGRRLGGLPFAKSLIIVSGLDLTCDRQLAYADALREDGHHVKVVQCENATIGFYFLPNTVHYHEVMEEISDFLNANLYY
# T3 sequence (Q7G7J6 1-625 partner): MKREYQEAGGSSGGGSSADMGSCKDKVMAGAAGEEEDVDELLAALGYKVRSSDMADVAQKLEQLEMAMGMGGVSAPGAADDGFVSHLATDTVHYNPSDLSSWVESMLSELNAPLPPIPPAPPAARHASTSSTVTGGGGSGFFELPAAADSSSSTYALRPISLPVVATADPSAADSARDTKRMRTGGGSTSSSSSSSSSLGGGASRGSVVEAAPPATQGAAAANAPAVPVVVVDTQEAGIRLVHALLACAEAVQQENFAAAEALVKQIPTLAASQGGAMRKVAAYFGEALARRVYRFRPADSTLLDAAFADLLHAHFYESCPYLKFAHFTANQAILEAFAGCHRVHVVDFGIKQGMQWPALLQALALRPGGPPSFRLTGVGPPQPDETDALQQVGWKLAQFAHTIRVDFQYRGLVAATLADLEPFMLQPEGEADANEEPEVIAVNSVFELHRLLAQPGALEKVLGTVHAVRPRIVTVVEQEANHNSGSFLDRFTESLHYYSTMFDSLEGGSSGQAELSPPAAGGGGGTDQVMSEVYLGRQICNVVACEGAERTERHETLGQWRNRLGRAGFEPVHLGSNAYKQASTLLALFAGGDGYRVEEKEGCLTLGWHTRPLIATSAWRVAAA
# [4] = target: T4, AtGID1b (with AtRGA) (Arabidopsis thaliana, UniProt Q9LYC1); settings: agonist; partner AtRGA; pH 8.0, 26 °C; unpurified cell-free proteins
# T4 construct: gene GID1B; C-terminal biotinylated GID1 and C-terminal FLAG-tagged DELLA, wheat germ cell-free synthesis, unpurified; with DELLA protein RGA
# T4 sequence (Q9LYC1 2-358): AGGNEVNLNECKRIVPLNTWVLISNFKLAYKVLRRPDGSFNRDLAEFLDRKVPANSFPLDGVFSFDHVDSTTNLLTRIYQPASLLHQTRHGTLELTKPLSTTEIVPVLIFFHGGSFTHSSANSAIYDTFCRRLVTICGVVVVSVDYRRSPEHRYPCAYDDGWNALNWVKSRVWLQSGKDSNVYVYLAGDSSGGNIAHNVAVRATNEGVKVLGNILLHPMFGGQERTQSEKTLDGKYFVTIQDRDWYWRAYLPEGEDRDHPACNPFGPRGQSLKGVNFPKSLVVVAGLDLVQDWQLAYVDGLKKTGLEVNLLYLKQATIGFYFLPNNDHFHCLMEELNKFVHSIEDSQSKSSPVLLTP
# T4 sequence (Q9SLH3 1-587 partner): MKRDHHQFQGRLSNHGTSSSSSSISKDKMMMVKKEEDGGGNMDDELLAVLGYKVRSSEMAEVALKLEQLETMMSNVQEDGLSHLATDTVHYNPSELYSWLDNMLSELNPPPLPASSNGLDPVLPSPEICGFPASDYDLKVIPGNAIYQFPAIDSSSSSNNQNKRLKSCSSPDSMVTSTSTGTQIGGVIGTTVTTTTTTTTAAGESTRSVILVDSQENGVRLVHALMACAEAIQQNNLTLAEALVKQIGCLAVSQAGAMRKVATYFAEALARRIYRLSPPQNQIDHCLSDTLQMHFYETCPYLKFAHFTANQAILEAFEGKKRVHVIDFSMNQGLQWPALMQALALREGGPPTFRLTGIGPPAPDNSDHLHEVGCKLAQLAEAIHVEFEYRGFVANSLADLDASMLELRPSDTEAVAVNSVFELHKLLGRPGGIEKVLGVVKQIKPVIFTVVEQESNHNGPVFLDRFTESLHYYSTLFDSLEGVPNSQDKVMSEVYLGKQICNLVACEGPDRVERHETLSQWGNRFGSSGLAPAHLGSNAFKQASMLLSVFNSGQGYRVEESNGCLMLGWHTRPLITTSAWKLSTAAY
# [5] = target: T5, AtGID1c (with AtRGA) (Arabidopsis thaliana, UniProt Q940G6); settings: agonist; partner AtRGA (also AtGAI); pH 8.0, 26 °C; unpurified cell-free proteins
# T5 construct: gene GID1C; C-terminal biotinylated GID1 and C-terminal FLAG-tagged DELLA, wheat germ cell-free synthesis, unpurified; also tested with AtGAI; with DELLA protein RGA
# T5 sequence (Q940G6 2-344): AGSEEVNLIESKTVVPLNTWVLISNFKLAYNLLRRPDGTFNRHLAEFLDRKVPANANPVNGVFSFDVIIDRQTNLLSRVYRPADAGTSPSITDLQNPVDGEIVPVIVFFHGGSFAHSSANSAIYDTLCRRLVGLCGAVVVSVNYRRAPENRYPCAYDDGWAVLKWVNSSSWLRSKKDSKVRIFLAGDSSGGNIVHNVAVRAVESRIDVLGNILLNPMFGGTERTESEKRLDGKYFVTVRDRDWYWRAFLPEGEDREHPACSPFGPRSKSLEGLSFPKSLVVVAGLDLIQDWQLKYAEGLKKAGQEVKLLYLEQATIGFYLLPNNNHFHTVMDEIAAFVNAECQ
# T5 sequence (Q9SLH3 1-587 partner): T4 sequence (Q9SLH3 1-587 partner)
SMILES,AlphaScreen GID1-DELLA interaction [1],AlphaScreen GID1-DELLA interaction [2],AlphaScreen GID1-DELLA interaction [3],AlphaScreen GID1-DELLA interaction [4],AlphaScreen GID1-DELLA interaction [5]
C=C1C[C@]23C[C@H]1CC[C@H]2[C@@]12C=C[C@H](O)[C@@](C)(C(=O)O1)[C@H]2[C@@H]3C(=O)O [GA7],VvGID1a exhibited GA-dependent interactions with VvDELLA1-3,VvGID1b also exhibited active and inactive GA-dependent interactions with VvDELLA1 and VvDELLA2,,,
C=C1C[C@]23C[C@H]1CC[C@H]2[C@@]12CCC[C@@](C)(C(=O)O1)[C@H]2[C@@H]3C(=O)O [GA9],"Although a much higher concentration was required, inactive GAs also induced these interactions",,,,
C=C1C[C@]23C[C@@]1(O)CC[C@H]2[C@@]12CC[C@H](O)[C@@](C)(C(=O)O1)[C@H]2[C@@H]3C(=O)O [GA1],VvGID1a exhibited GA-dependent interactions with VvDELLA1-3,VvGID1b also exhibited active and inactive GA-dependent interactions with VvDELLA1 and VvDELLA2,,,
C=C1C[C@]23C[C@@]1(O)CC[C@H]2[C@@]12C=C[C@H](O)[C@@](C)(C(=O)O1)[C@H]2[C@@H]3C(=O)O [GA3],VvGID1a exhibited GA-dependent interactions with VvDELLA1-3,VvGID1b also exhibited active and inactive GA-dependent interactions with VvDELLA1 and VvDELLA2,swapping had little effect on the interaction between DELLA proteins and GA receptors by GA3,,
C=C1C[C@]23C[C@@]1(O)CC[C@H]2[C@@]12CCC[C@@](C)(C(=O)O1)[C@H]2[C@@H]3C(=O)O [GA20],"Although a much higher concentration was required, inactive GAs also induced these interactions",,,,
"CCCCCC(C(=O)O)(c1ccccc1)c1ccccc1 [diphegaractin, 2,2-diphenylheptanoic acid]",,"diphegaractin induced two interactions, VvGID1b–VvDELLA1 and VvGID1b–VvDELLA2",OsGID1 V326I/L330F mutant increased the interaction with OsSLR by diphegaractin,it promoted the interaction of AtGID1b with AtRGA,AtGID1c with AtRGA and AtGAI
C=C1C[C@]23C[C@H]1CC[C@H]2[C@@]12CC[C@H](O)[C@@](C)(C(=O)O1)[C@H]2[C@@H]3C(=O)O [GA4],VvGID1a exhibited GA-dependent interactions with VvDELLA1-3,VvGID1b also exhibited active and inactive GA-dependent interactions with VvDELLA1 and VvDELLA2,,,
